Measured values: US9156877B2, “17-hydroxy-17-pentafluorethyl-estra-4,9(10)-dien-11-benzylidene derivatives, methods for the production thereof and use thereof for treating diseases” (Bayer Intellectual Property GmbH, priority 2009, dated 2015)
pIC50: −log10 of the molar value. Values after ≈ are worked out from the molar mass of the structure shown.

Columns and labels:
[1] = target: T1, human progesterone receptor B (Homo sapiens, UniProt P06401); assay: Progesterone receptor-antagonistic action in stably transfected SK-N-MC cells with MMTV-LUC reporter (PR-B); format: cell-based; details: antagonistic potency against 0.1 nmol/l promegestone, 24 hours, luciferase
T1 construct: expressed in transfected cells; host or cells: SK-N-MC human neuroblastoma cells, stably transfected with pRChPR-B-neo and pMMTV-LUC
T1 sequence (P06401 1-933): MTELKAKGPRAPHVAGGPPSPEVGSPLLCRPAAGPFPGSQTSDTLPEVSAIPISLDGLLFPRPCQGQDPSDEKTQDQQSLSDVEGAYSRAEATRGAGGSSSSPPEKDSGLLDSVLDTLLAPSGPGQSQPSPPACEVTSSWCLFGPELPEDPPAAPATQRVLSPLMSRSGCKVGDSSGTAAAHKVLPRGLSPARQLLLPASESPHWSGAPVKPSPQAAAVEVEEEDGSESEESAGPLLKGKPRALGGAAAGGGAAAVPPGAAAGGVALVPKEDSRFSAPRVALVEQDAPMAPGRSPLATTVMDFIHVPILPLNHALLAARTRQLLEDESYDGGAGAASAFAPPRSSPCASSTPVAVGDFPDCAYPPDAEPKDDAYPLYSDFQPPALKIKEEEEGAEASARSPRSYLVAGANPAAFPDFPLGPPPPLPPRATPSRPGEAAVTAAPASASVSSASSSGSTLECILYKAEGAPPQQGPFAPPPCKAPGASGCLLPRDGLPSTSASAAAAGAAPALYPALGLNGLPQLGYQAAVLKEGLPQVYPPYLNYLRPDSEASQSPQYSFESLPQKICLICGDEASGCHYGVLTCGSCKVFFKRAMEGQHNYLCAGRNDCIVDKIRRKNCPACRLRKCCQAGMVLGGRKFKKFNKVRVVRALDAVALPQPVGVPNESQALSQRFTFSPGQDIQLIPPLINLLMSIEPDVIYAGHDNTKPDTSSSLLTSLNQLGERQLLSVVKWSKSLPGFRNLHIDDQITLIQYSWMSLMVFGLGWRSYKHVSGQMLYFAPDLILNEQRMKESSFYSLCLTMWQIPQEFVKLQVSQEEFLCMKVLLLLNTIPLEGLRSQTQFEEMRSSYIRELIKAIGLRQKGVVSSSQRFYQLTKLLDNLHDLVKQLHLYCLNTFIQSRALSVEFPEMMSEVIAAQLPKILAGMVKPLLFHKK
Outline: (§1)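 SK-N-MC neuroblastoma cells stably expressing human PR-A or PR-B plus MMTV-LUC reporter, treated 24 h with test compound (0.01 nmol/l–[…]). Antagonist mode used co-treatment with 0.1 nmol/l promegestone; luciferase in lysates read as RLU, expressed as % efficacy and IC50/EC50.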

[2] = target: T2, human progesterone receptor A (Homo sapiens, UniProt P06401); assay: Progesterone receptor-antagonistic action in stably transfected SK-N-MC cells with MMTV-LUC reporter (PR-A); format: cell-based; details: antagonistic potency against 0.1 nmol/l promegestone, 24 hours, luciferase
T2 construct: expressed in transfected cells; host or cells: SK-N-MC human neuroblastoma cells, stably transfected with pRChPR-A-neo and pMMTV-LUC
T2 sequence (P06401 1-769 isoform P06401-2): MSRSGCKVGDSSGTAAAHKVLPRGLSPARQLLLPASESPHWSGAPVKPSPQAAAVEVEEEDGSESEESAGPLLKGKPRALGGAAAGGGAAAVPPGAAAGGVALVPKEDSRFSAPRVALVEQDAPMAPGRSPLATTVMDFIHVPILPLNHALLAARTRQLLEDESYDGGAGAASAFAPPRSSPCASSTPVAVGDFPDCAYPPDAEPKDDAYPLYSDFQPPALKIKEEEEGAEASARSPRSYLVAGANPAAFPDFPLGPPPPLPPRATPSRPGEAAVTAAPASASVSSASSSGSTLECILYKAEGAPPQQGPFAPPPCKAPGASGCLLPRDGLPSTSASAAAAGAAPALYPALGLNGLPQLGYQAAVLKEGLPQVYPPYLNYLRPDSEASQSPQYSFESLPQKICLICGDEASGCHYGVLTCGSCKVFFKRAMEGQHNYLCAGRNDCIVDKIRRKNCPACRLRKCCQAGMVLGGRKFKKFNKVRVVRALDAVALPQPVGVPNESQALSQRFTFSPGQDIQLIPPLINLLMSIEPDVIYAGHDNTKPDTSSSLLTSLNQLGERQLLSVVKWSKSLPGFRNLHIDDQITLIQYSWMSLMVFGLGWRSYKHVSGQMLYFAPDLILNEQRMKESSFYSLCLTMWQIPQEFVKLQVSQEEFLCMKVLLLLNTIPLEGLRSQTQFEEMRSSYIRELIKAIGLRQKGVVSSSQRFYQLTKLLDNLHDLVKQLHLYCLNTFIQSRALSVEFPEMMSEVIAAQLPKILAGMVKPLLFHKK
Outline: as §1

[3] = Metabolic stability in rat liver microsomes; format: in vitro ADME; details: for Predicted clearance [l/h/kg] Rat: well-stirred model
Method: (§2) Determination of Metabolic Stability in Human and Rat Liver Microsomes
(§3) The incubations were conducted with 2.4 ml of HLM solution (protein content 0.5 mg/ml), 30 μl of the test compound (final concentration 1 μM) and 0.6 ml of the cofactor mixture (═NADPH-generating system composed of 3 IU glucose-6-phosphate dehydrogenase, 14.6 mg glucose-6-phosphate, 1.2 mg NADP) at 37° C. in 100 mM phosphate buffer at pH 7.4. Samples were taken at 6 time points (2-60 min) and precipitated with an equal volume of methanol, and the recovery of the test substances used in the supernatant was determined by LC-MS/MS analysis. The half-life of substance degradation determined therefrom was used to calculate what is called the intrinsic clearance of the substance in the liver microsome preparation. […] In addition, under the assumptions that (i) absorption of the test substance is 100%, and (ii) the first pass is completely reflected by liver microsome metabolism, a maximum oral bioavailability (Fmax) was calculated.

pregnant rats = assay: Abortion test on female rats; format: in vivo, rat; details: d5-d7 p.c., autopsy d9 p.c.
Method: Abortion Test on Female Rats
The action of progesterone and of the progesterone receptor is a fundamental precondition for successful pregnancy or gestation in mammals. The progesterone-antagonistic action of the inventive compounds was tested on pregnant rats (6 rats per group) on days 5 to 7 post coitum under conventional housing and feeding conditions.
After successful mating, the pregnant animals (presence of sperm in the vaginal smear on day 1 of pregnancy=d1 p.c.) were randomized and divided into the treatment group and the control group. The animals then each received subcutaneously or orally 0.15; 0.5; 1.5 or 5 mg/kg of the test compound or 1.0 ml/kg of vehicle (benzyl benzoate/castor oil: 1+4 [v/v]) daily from day 5 to day 7 (d5-d7 p.c.).
Autopsy was conducted on day 9 (d9 p.c.). As a characteristic of progesterone receptor-antagonistic action, the uterus was examined for the presence of nidation sites. Complete absence, or else the presence of pathological, haemorrhagic or otherwise abnormal nidation sites, on day 9 (d9 p.c.) was considered as abortion.

[4] = Solubility in aqueous medium at pH 7.4; format: physicochemical; details: for solubility (in words): aqueous medium under physiological conditions; for solubility: aqueous medium, pH 7.4, aqueous buffer
Text: In addition, some compounds have an unusually good solubility, for this active ingredient class, in aqueous medium under physiological conditions (Table 2).

[5] = Metabolic stability in human liver microsomes; format: in vitro ADME; details: for Predicted clearance [l/h/kg] Human: 1 μM, well-stirred model
Method: as §2
Isolated human liver microsomes (HLM) were used to assess the metabolic stability of compounds of general formula I.
as §3

SMILES	pIC50 [1]	pIC50 [2]	Predicted Fmax [%] (maximum oral bioavailability) Rat [3]	Predicted clearance [l/h/kg] Rat [3]	solubility (in words) [4]	solubility [4]	Predicted Fmax [%] (maximum oral bioavailability) Human [5]	Predicted clearance [l/h/kg] Human [5]	Abortion rate [%] (pregnant rats; daily dose 0.5 mg/kg p.o.)	Abortion rate [%] (pregnant rats; daily dose 1.5 mg/kg p.o.)	Abortion rate [%] (pregnant rats; daily dose 5.0 mg/kg p.o.)
C[C@]12C[C@H](c3ccc(/C=C/CO)cc3)C3=C4CCC(=O)C=C4CC[C@H]3[C@@H]1CC[C@@]2(O)C(F)(F)C(F)(F)F [Example 2, (8S,11R,13S,14S,17S)-17-hydroxy-11-[4-((E)-3-hydroxypropenyl)phenyl]-13-methyl-17-pentafluoroethyl-1,2,6,7,8,11,12,13,14,15,16,17-dodecahydrocyclopenta[a]phenanthren-3-one]	9.60	9.85	69%	1.3 L/h/kg	–	11 µg/mL (≈ 21.1 µM)	69%	0.41 L/h/kg	–	–	–
C[C@]12C[C@H](c3ccc(/C=C/c4ccncc4)cc3)C3=C4CCC(=O)C=C4CC[C@H]3[C@@H]1CC[C@@]2(O)C(F)(F)C(F)(F)F [Example 8, (8S,11R,13S,14S,17S)-17-hydroxy-13-methyl-17-pentafluoroethyl-11-[4-((E)-2-pyridin-4-ylvinyl)phenyl]-1,2,6,7,8,11,12,13,14,15,16,17-dodecahydrocyclopenta[a]phenanthren-3-one]	10.11	10.92	92%	0.3 L/h/kg	–	7 µg/mL (≈ 12.3 µM)	87%	0.18 L/h/kg	–	–	–
C[C@]12C[C@H](c3ccc(/C=C/C(=O)O)cc3)C3=C4CCC(=O)C=C4CC[C@H]3[C@@H]1CC[C@@]2(O)C(F)(F)C(F)(F)F [Example 13, (E)-3-[4-((8S,11R,13S,14S,17S)-17-hydroxy-13-methyl-3-oxo-17-pentafluoroethyl-2,3,6,7,8,11,12,13,14,15,16,17-dodecahydro-1H-cyclopenta[a]phenanthren-11-yl)phenyl]acrylic acid]	9.52	10.00	97%	0.1 L/h/kg	improved	> 179 µg/mL	52%	0.63 L/h/kg	–	–	–
C[C@]12C[C@H](c3ccc(/C=C/C=C/C(=O)O)cc3)C3=C4CCC(=O)C=C4CC[C@H]3[C@@H]1CC[C@@]2(O)C(F)(F)C(F)(F)F [Example 17, (2E,4E)-5-[4-((8S,11R,13S,14S,17S)-17-hydroxy-13-methyl-3-oxo-17-pentafluoroethyl-2,3,6,7,8,11,12,13,14,15,16,17-dodecahydro-1H-cyclopenta[a]phenanthren-11-yl)phenyl]penta-2,4-dienoic acid]	9.15	10.00	91%	0.4 L/h/kg	improved	> 188 µg/mL	33%	0.89 L/h/kg	0%	16.7%	100.0%
C[C@]12C[C@H](c3ccc(/C=C/c4ccccn4)cc3)C3=C4CCC(=O)C=C4CC[C@H]3[C@@H]1CC[C@@]2(O)C(F)(F)C(F)(F)F [Example 6, (8S,11R,13S,14S,17S)-17-hydroxy-13-methyl-17-pentafluoroethyl-11-[4-((E)-2-pyridin-2-ylvinyl)phenyl]-1,2,6,7,8,11,12,13,14,15,16,17-dodecahydrocyclopenta[a]phenanthren-3-one]	9.92	9.80	83%	0.7 L/h/kg	–	9 µg/mL (≈ 15.8 µM)	84%	0.21 L/h/kg	–	–	–

Further lines, with some results ahead:

pIC50 [1]	pIC50 [2]	Predicted Fmax [%] (maximum oral bioavailability) Rat [3]	Predicted clearance [l/h/kg] Rat [3]	solubility (in words) [4]	solubility [4]	Predicted Fmax [%] (maximum oral bioavailability) Human [5]	Predicted clearance [l/h/kg] Human [5]	SMILES	Abortion rate [%] (pregnant rats; daily dose 0.5 mg/kg p.o.)	Abortion rate [%] (pregnant rats; daily dose 1.5 mg/kg p.o.)	Abortion rate [%] (pregnant rats; daily dose 5.0 mg/kg p.o.)
10.05	10.10	100%	0.0 L/h/kg	improved	102 µg/mL (≈ 166 µM)	94%	0.08 L/h/kg	C[C@]12C[C@H](c3ccc(/C=C/c4ccc(C(=O)O)cc4)cc3)C3=C4CCC(=O)C=C4CC[C@H]3[C@@H]1CC[C@@]2(O)C(F)(F)C(F)(F)F [Example 29, 4-{(E)-2-[4-((8S,11R,13S,14S,17S)-17-hydroxy-13-methyl-3-oxo-17-pentafluoroethyl-2,3,6,7,8,11,12,13,14,15,16,17-dodecahydro-1H-cyclopenta[a]phenanthren-11-yl)phenyl]vinyl}benzoic acid]	0%	16.7%	100.0%
9.00	9.52	77%	1.0 L/h/kg	–	6 µg/mL (≈ 10.5 µM)	41%	0.8 L/h/kg	C[C@]12C[C@H](c3cccc(/C=C/c4cccnc4)c3)C3=C4CCC(=O)C=C4CC[C@H]3[C@@H]1CC[C@@]2(O)C(F)(F)C(F)(F)F [Example 22, (8S,11R,13S,14S,17S)-17-hydroxy-13-methyl-17-pentafluoroethyl-11-[3-((E)-2-pyridin-3-ylvinyl)phenyl]-1,2,6,7,8,11,12,13,14,15,16,17-dodecahydrocyclopenta[a]phenanthren-3-one]	–	–	–
